Measurements reported in US12616663B2, “Plant-derived exosome-like nanoparticles inhibit bacterial pathogenicity” (priority 2019, dated 2026).

What was measured:
P. gingivalis [1] = test: Bacterial growth, optical density at 600 nm; format: cell-based, Porphyromonas gingivalis
Experimental: Bacterial strain and growth condition. P. gingivalis 33277 was cultured in tryptic soy broth supplemented with yeast extract (1 mg/ml), hemin (5 μg/ml) and menadione (1 μg/ml) and incubated at 37° C. in anaerobic chamber (85% N2, 10% H2, 5% CO2). S. gordonii DL1 was cultured in brain-heart infusion broth media containing 0.5% yeast extract and incubated at anaerobically at 37° C.
Bacterial growth. […] P. gingivalis and S. gordonii growth was determined by measuring optical density at 600 nm.

[2] = test system: P. gingivalis total cell lysates; test: SPR: P. gingivalis total cell lysates run over immobilized liposomes; format: binding, Porphyromonas gingivalis; conditions: LIP-1 sensor, total cell lysates as analyte
Experimental: (§1) Liposome preparation. Total lipids from ginger exosome-like nanoparticles (GELNs) were extracted with chloroform:methanol (2:1, v/v). Thin layer chromatography (TLC) was performed with standard PA(34:2). The corresponding PA band was excised from the TLC plate and remaining bands were pool together. GELNs total lipids, PA depleted lipids and PA(34:2) were completely dried under stream of nitrogen gas. The lipid film was suspended in HEPES-buffered saline (HBS) running buffer (20 mM HEPES, 150 mM NaCl, pH 7.4) and gently vortexed and sonicated for 10 minutes until clear solution was formed. The liposome suspension was extruded through a poly carbonated membrane filter syringe with pore size of 100 nm. The size of liposome was confirmed by NanoSight NS300 (Malvern Panalytical Inc, MA, USA). Total lipids were determined by measuring total phosphate levels.
Surface Plasmon Resonance (SPR). SPR experiments were conducted on an OPENSPR™ (Nicoya, Lifesciences, ON, CA). All experiments were carried on LIP-1 sensor (Nicoya, Lifesciences). Tests were run at flow rate of 20 μl/minute using HBS running buffer (20 mM HEPES, 150 mM NaCl, pH 7.4). First, LIP-1 sensor chip was cleaned with Octyl 0-D-glucopyranoside (40 mM) and CHAPS (20 mM). […] The sensograms were analyzed using TRACEDRAWER™ brand kinetic Analysis software. […]

[3] = test system: HBP35 synthetic peptide (functional domain of hemin binding protein 35); test: SPR: HBP35 synthetic peptide as analyte over immobilized liposomes; parameters: species or system Porphyromonas gingivalis; conditions: liposomes immobilized on LIP-1 sensor; non-specific peptide as negative control
Experimental: as §1, with “The size of liposome was confirmed by NanoSight NS300 (Malvern Panalytical Inc, MA, USA).” left out
Surface Plasmon Resonance (SPR). […] The sensograms were analyzed using TRACEDRAWER™ brand kinetic Analysis software.
Whether the HBP35 synthetic peptide directly bound to PA (34:2) and/or PA (34:1) of GELNs lipids was also tested. […] The lipid-protein interactions were determined by SPR sensograms. Fluorescent confocal micrographs of P. gingivalis labelled with PKH67 (green fluorescence) and GELNs and LipidG liposomes were labelled with PKH26 (red fluorescence). […] Particles and liposomes taken up by P. gingivalis were also quantified by flow cytometry. […]

[4] = test system: arginine-specific (Rgp) gingipain; test: Gingipain proteolytic activity (N-benzoyl-L-arginine-pNA); format: cell-based, Porphyromonas gingivalis; conditions: GELNs and GELN lipids 2×10^8 and 4×10^8 particles/ml vs PBS control; PA(34:2), aly-miR159a vs control
Experimental: Gingipain proteolytic activity. The proteolytic activity of arginine-specific (Rgp) and lysine specific (Kgp) gingipain was measured. P. gingivalis was cultured to mid-log phase and treated with and without GELNs (2.0-4.0×10^8 particles/ml) for 6 hour. The bacterial cells were collected by centrifugation at 5000 g for 10 minutes, washed, and lysed with BUGBUSTER® brand lysis reagent (Millipore Sigma, Burlington, MA, USA). The chromogenic p-nitroanilide substrates N-benzoyl-L-arginine-pNA or toluenesulfonyl-glycyl-prolyl-L-lysine-pNA (Sigma) were used to measure RgpA/B and Kgp respectively. Bacterial cell lysates (50 μl) were pre-incubated with assay buffer containing 200 mM Tris-HCl, 5 mM CaCl2/150 mM NaCl and supplemented with 10 mM cysteine in 96-well plate, incubated at 37° C. for 10 minutes, and 0.5 mM of specific substrate was added to each well. The rate of substrate hydrolysis and accumulation of p-nitroanillide was monitored spectrophotometrically at 405 nm. The enzyme activity was calculated and given as mOD/min/μl.

[5] = target: T1, lysine specific (Kgp) gingipain (Porphyromonas gingivalis, UniProt B2RLK2); format: cell-based; conditions: GELNs and GELN lipids 2×10^8 and 4×10^8 particles/ml vs PBS control; PA(34:2), aly-miR159a vs control
T1 construct: endogenous in cells; host or cells: Porphyromonas gingivalis, BugBuster lysate of treated bacteria

[6] = test system: AraC transcription factor mRNA; format: cell-based, Porphyromonas gingivalis
hemagglutinin (HA) mRNA = format: cell-based, Porphyromonas gingivalis
[7] = test system: outer membrane protein (OMP) mRNA; format: cell-based, Porphyromonas gingivalis
[8] = test system: rod shape determining protein (RodA) mRNA; format: cell-based, Porphyromonas gingivalis
P. gingivalis [9] = test: Gliding motility in U shaped glass tube with 0.2% agar; format: cell-based, Porphyromonas gingivalis; conditions: GELNs 4.0×10^8 particles/ml, PA (34:2) 5 μg/ml vs PBS; miRNAs vs scrambled miRNA; 48 hours
Experimental: Gliding motility. Gliding motility of P. gingivalis was measured. P. gingivalis was reacted with GELNs (4×10^8 particles/ml) or total lipids extracted from GELNs or miRNAs such as aly-miR-159a-3p, gma-miR166u, and gma-miR166p. A sterile “U” shaped glass tube containing 0.2% agar as suspension medium was produced. P. gingivalis (100 μl) was inoculated one edge of the tube and incubated at anaerobic chamber for 48 hours, the location of bacteria was visualized by cloudiness, and distance movement of P. gingivalis was calculated.
Transferring gingipain from intracellular locations to the cell surface is a critical step in the pathogenesis of P. gingivalis. Gingipains are synthesized with an N-terminal signal peptide targeting them to the Sec translocon where they are exported through the outer-membranes via a novel secretion system referred to as type IX Secretion System (T9SS). T9SS plays a critical role in bacterial gliding motility that could contribute to P. gingivalis pathogenesis. Therefore, it was determined whether GELNs, GELN-derived miRNAs, and/or GELN lipids could play a role in inhibition of gliding motility of P. gingivalis. P. gingivalis were pretreated with GELNs (4.0×10^8 particles/ml) or PA (34:2; 5 μg/ml) or transduced with GELN-derived aly-miR159a, gma-miR166u, or gma-miR166p. […]

[10] = test system: T9SS family members porK, porL, porM, porN, porP, porQ, porT, porV, porW, porX, porY, and sov; test: qPCR of T9SS family member expression; format: cell-based, Porphyromonas gingivalis; conditions: GELNs 4.0×10^8 particles/ml, lipids from 4.0×10^8 particles, 5 μg PA (34:2) 6 hours; miRNAs 24 hours vs scrambled
Experimental: (§2) RNA isolation and quantitative real time PCR (qRT-PCR). Total RNA was isolated from P. gingivalis and TIGK cells using TRIZOL™ brand reagent according to the manufacturer's protocol (Invitrogen). RNA (1 μg) was converted into cDNA with ISCRIPT™ brand cDNA synthesis kit (Bio-Rad, Hercules, California, United States of America). qRT-PCR was performed for quantification of gene expression, cDNA samples were amplified with SSOFAST™ EVAGREEN® Supermix brand qRT-PCR cocktail in CFX96 Real-time PCR system (Bio-Rad). The mRNA expression was quantified by ΔΔCt method using 16S rRNA expression as an internal control for bacterial gene expression.
To further determine the molecular mechanisms underlying GELN-mediated inhibition of P. gingivalis gliding motility, the roles of GELNs, GELNs lipids, and GELN-derived miRNAs in modulating the expression of genes related to T9SS were determined. P. gingivalis was treated with GELNs (4.0×10^8 particles/ml) and GELNs lipids derived from 4.0×10^8 particles and 5 μg of PA (34:2) for 6 hours, and miRNAs aly-miR159a, gma-miR166u, and gma-miR166p were transduced into P. gingivalis by incubation for 24 hours. […] Further, it was determined that aly-miR159a-3p has potential binding sites in the T9SS C-terminal target domain containing protein PGN_0152; see FIG. 8H).

[11] = test system: P. gingivalis attachment to TIGK cells; test: Attachment of P. gingivalis to epithelial cells (ELISA, confocal microscopy); format: cell-based, Porphyromonas gingivalis; human TIGK cells; conditions: GELNs vs PBS; total lipids (from 4.0×10^8 particles), 50 nM PA (34:2) vs DMSO; miRNAs vs scrambled control
Experimental: Culture of TIGK cells. Human telomerase immortalized keratinocytes (TIGKs) derived from gingival epithelium were obtained from Dr. Lamont Laboratory and maintained at 37° C. and 5% CO2 in DERMALIFE®-K brand serum free culture medium (Lifeline Cell Technology, Carlsbad, California, United States of America).
Attachment to epithelial cells. The amount of P. gingivalis attachment to the surface of gingival epithelial cells were determined. Briefly, telomerase immortalized gingival keratinocytes (TIGKs), derived from primary gingival epithelial cell lines, were cultured in 96-well plates for 24 hours. Then, the cells were fixed with 5% buffered formalin for 1 hour, and washed with PBS. […] Cells were washed with PBS to remove non-adherent bacteria. Then, wells were incubated with P. gingivalis whole-cell antibodies (1:10,000) at 37° C. for 1 hour, then washed with PBS. Binding was detected with a secondary horse radish peroxidase (HRP)-anti-rabbit antibody (1:5,000) and 3,3′,5,5′-tetramethylbenzidine substrate (Sigma), and recorded at 450 nm.
Then, the TIGK cells were fixed with 5% buffered formalin for 10 minutes. P. gingivalis cells were stained with an antibody raised against P. gingivalis (1:1000 dilution) incubated for 3 hour at room temperature. After extensive washing with PBS, cells were incubated with ALEXAFLUOR® 568-conjugated IgG (1:5000 dilution) for 1 hour at room temperature. […]

fimbrillin (fimA) = test: fimA expression (real-time PCR, western blot); format: cell-based, Porphyromonas gingivalis; conditions: GELNs, total lipids or PA (34:2) 6 hours vs DMSO
Experimental: as §2

[12] = test system: P. gingivalis invasion into TIGK cells; test: P. gingivalis invasion, antibiotic protection assay (CFU); format: cell-based, Porphyromonas gingivalis; human TIGK cells; conditions: GELNs total lipids or PA (34:2) vs DMSO control; miRNA-transduced bacteria

Row | Compound | blocking of GELN lipid-mediated inhibition of P. gingivalis growth (P. gingivalis [1]; GELN total lipids (4.0 and 6.0×10^8 particles) pre-incubated with peptide) | blocking of PA-mediated inhibition of P. gingivalis growth (P. gingivalis [1]; PA (34:2) pre-incubated with peptide) | concentration at which P. gingivalis growth was inhibited (P. gingivalis [1]; 0-50 μg/ml tested, 24 hours, very low concentration compared to other lipid compounds) | interaction of P. gingivalis proteins with immobilized nanoparticles (SPR sensograms) [2] | direct interaction with HBP35 synthetic peptide (SPR sensogram peaks) [3] | arginine-specific (Rgp) gingipain activity [4] | lysine-specific (Kgp) gingipain activity [5] | AraC mRNA expression [6] | hemagglutinin (HA) mRNA expression (hemagglutinin (HA) mRNA) | outer membrane protein (OMP) mRNA expression [7] | RodA mRNA expression [8] | gliding motility of P. gingivalis (P. gingivalis [9]) | T9SS family members whose expression was significantly inhibited [10] | surface attachment of P. gingivalis to TIGK cells (ELISA) [11] | fimA expression (mRNA and protein levels) (fimbrillin (fimA)) | P. gingivalis invasion into TIGK cells [12]
1 | WPRVGQLFIALDQTLGIPGFPTFSVCRME [HBP35 synthetic peptide] | significantly blocked | significantly blocked | – | – | – | – | – | – | – | – | – | – | – | – | – | –
2 | CCCCC/C=C\C/C=C\CCCCCCCC(=O)O[C@H](COC(=O)CCCCCCCCCCCCCCC)COP(=O)(O)O [PA (34:2), 1-palmitoyl-2-linoleoyl-sn-glycero-3-phosphate] | – | – | 5 µg/mL | able to interact | directly interacted | contributed to inhibit | contributed to inhibit | inhibited | not significant | inhibited | inhibited | significantly inhibited the motility | 9/12 | significantly inhibited surface attachment | significantly decreased | significant decrease
